Test results: US9050334B2, “MIF inhibitors and their uses” (INNOV88 LLC, priority 2010, dated 2015)

Tests used:
Native human MIF = molecular target: T1, Native human MIF (Homo sapiens, UniProt P14174); experiment: MIF tautomerase activity assay with hydroxyphenyl pyruvic acid (HPP) substrate; type: biochemical; settings: absorbance at 300 nm
T1 sequence (P14174 2-115 limits assumed): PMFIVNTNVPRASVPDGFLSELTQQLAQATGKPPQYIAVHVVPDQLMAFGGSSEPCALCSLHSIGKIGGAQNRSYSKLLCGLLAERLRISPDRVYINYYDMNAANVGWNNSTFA
Method: The ability of candidate compounds to inhibit this tautomerase activity are quantitated by using hydroxyphenyl pyruvic acid (HPP) as a substrate (Ouertatani-Sakouhi et al., 2010). The ability of compounds to inhibit the tautomerase activity can be quantitated by following the increase in absorbance due to the enzymatic formation of the HPP enol-borate complex at 300 nm in the absence and presence of a test compound. The IC50 value of compounds are determined by plotting the initial velocities determined at 300 nm as a function of a test compound's concentration. Assays are carried out in a 96 or 384 well plate format. Representative MIF inhibitors were tested in the assay described above and the results tabulated in Table 1 wherein “A” represents≦10 μM; “B” represents>10 μM and <100 μM; “C” represents>100 μM and ≦200 μM; and “D” represents>200 μM.

LPS-stimulated PBMCs = experiment: TNF-α production in LPS-stimulated PBMCs; type: cell-based; settings: PBMC; human PBMCs, 25 μM compound preincubated 1 hour, LPS stimulation, 24 hours
Method: (§1) Effect of Candidate Compounds on Cytokine Production from Human Cells: Mono-Mac-6 Cells: The cellular efficacy of the inhibitors is determined using the human monocytic cell line, Mono-Mac-6 cells (MM6 cells) as it has been shown that MIF induces the production of inflammatory mediators, including tumor necrosis factor-α (TNF-α) interleukin (IL)-1β, IL-6, IL-8, interferon-γ (IFN-γ) and prostaglandin E2 (PGE2) in these cells (Schwartz et al., 2009). Recombinant human MIF (rhMIF) will be purchased from R&D Systems (Minneapolis, Minn.) or generated in house. To induce the production of inflammatory mediators, MM6 cells will be plated at a final concentration of 5×10^5 cells/ml in RPMI 1640 medium containing 1% heat-inactivated low-pyrogen fetal bovine serum, 2 mM GlutaMAX-1,1% non-essential amino acids, 1% sodium pyruvate, 100 units/ml penicillin G and 100 μg/ml streptomycin (Gibco BRL Life Technologies). Cells will be stimulated with 100 ng/ml rhMIF with or without inhibitor for 20 h at 37° C. with 5% CO2. The supernatants were stored at −20° C. until they were assayed. The levels of inflammatory mediators will be determined using commercial ELISA kits from R&D Systems (Minneapolis, Minn.). Human Periperal Blood Mononuclear Cells (PBMC): Human whole blood is collected from healthy donors in sodium-heparinized tubes (BD Biosciences), and peripheral blood mononucleated cells (PBMC) are isolated by Ficoll separation. Cells are washed in Dulbecco's phosphate-buffered saline, resuspended in media (DMEM) containing 5% low endotoxin (<0.3 EU/ml) fetal Bovine Serum (FBS, GIBCO) and 10 units/ml penicillin/streptomycin, and plated at 5×10^5 cells/well in 96-well tissue culture plates. Lipopolysaccharide (LPS, E. coli Serotype 0111:B4, Sigma) or macrophage migration inhibitory factor are pre-incubated for 15 minutes with compounds dissolved in dimethyl sulfoxide (DMSO). The mixtures are then added to cells to yield final concentrations of 1% DMSO, 100 ng/ml LPS and 1 μg/ml MIF. Cells are incubated for overnight at 37° C., 5% CO2. TNF-α production is measured by ELISA (R&D Systems). Cytotoxicity is assessed using the MTT [3-(4,5-dimethylthiazol-2-yl)-2,5-diphenyl tetrazolium bromide assay. Human Rheumatoid Arthritis Synovial Fibroblast (RASF) Cell Line: RASF cells are derived from the inflamed synovium of a RA patient who was undergoing total knee replacement. Cells are cultured in Dulbecco's modified Eagle's medium with 15% FBS, 1% glutamine, and 1% penicillin/streptamycin (all from Gibco (Invitrogen), Gaithersburg, Md.). Experiments are performed with cells between passages 7 to 10, using trypsin with 0.25% ethylene diamine tetraacetic acid (EDTA)(Gibco) to detach cells. Interleukin 1 or macrophage migration inhibitory factor (MIF, GIBCO) are pre-incubated for 15 minutes with compounds dissolved in dimethyl sulfoxide (DMSO). The mixtures are then added to cells to yield final concentrations of 1% DMSO, 1 ng/ml Interleukin 1 or 1 μg/ml MIF. RASFs are incubated with or without stimuli at 37° C. for 20 h for induction of Interelukin 6. Interleukin 6 levels in culture supernatants are quantitated by ELISA. Representative MIF inhibitors were tested in the assay described above, specifically, human peripheral blood mononuclear cells [PBMCs] were isolated and stimulated with either LPS or rhMIF.

rhMIF-stimulated PBMCs [1] = experiment: IL-6 production in rhMIF-stimulated PBMCs; type: cell-based; settings: PBMC; human PBMCs, 25 μM compound preincubated 1 hour, rhMIF stimulation, 24 hours
Method: Effect of Candidate Compounds on Cytokine Production from Human Cells: Mono-Mac-6 Cells: The cellular efficacy of the inhibitors is determined using the human monocytic cell line, Mono-Mac-6 cells (MM6 cells) as it has been shown that MIF induces the production of inflammatory mediators, including tumor necrosis factor-α (TNF-α) interleukin (IL)-1β, IL-6, IL-8, interferon-γ (IFN-γ) and prostaglandin E2 (PGE2) in these cells (Schwartz et al., 2009). Recombinant human MIF (rhMIF) will be purchased from R&D Systems (Minneapolis, Minn.) or generated in house. To induce the production of inflammatory mediators, MM6 cells will be plated at a final concentration of 5×10^5 cells/ml in RPMI 1640 medium containing 1% heat-inactivated low-pyrogen fetal bovine serum, 2 mM GlutaMAX-1,1% non-essential amino acids, 1% sodium pyruvate, 100 units/ml penicillin G and 100 μg/ml streptomycin (Gibco BRL Life Technologies). Cells will be stimulated with 100 ng/ml rhMIF with or without inhibitor for 20 h at 37° C. with 5% CO2. The supernatants were stored at −20° C. until they were assayed. The levels of inflammatory mediators will be determined using commercial ELISA kits from R&D Systems (Minneapolis, Minn.). […] Cytotoxicity is assessed using the MTT [3-(4,5-dimethylthiazol-2-yl)-2,5-diphenyl tetrazolium bromide assay. […] Interleukin 6 levels in culture supernatants are quantitated by ELISA. […]

rhMIF-stimulated PBMCs [2] = experiment: TNF-α production in rhMIF-stimulated PBMCs; type: cell-based; settings: PBMC; human PBMCs, 25 μM compound preincubated 1 hour, rhMIF stimulation, 24 hours
Method: as §1, with “Interleukin 1 or macrophage migration inhibitory factor (MIF, GIBCO) are pre-incubated for 15 minutes with compounds dissolved in dimethyl sulfoxide (DMSO). The mixtures are then added to cells to yield final concentrations of 1% DMSO, 1 ng/ml Interleukin 1 or 1 μg/ml MIF. RASFs are incubated with or without stimuli at 37° C. for 20 h for induction of Interelukin 6.” left out, “Representative MIF inhibitors were tested in the assay described above, specifically, human peripheral blood mononuclear cells [PBMCs] were isolated and stimulated with either LPS or rhMIF.” left out

Structure (SMILES) | IC50 (Native human MIF) [µM] | inhibition at 25 µM (LPS-stimulated PBMCs) [%] | inhibition at 25 µM (rhMIF-stimulated PBMCs [1]) [%] | inhibition at 25 µM (rhMIF-stimulated PBMCs [2]) [%]
Cn1c(=O)c(C#N)c(N2CCC(C(=O)c3cccs3)CC2)c2ccccc21 [Compound IV, 1-methyl-2-oxo-4-[4-(thiophen-2-ylcarbonyl)piperidin-1-yl]-1,2-dihydroquinoline-3-carbonitrile] | 100 to 200 | 10 to 50 | – | –
Cn1c(=O)c(C#N)c(N2CCC(NC(=O)c3cccs3)CC2)c2ccccc21 [Compound VIII, N-[1-(3-cyano-1-methyl-2-oxo-1,2-dihydroquinolin-4-yl)piperidin-4-yl]thiophene-2-carboxamide] | ≤ 10 | 10 to 50 | – | –
Cn1c(=O)c(C#N)c(N2CC(C(=O)c3cccs3)C2)c2ccccc21 [Compound V] | 10 to 100 | > 70 | – | –
Cn1c(=O)c(C#N)c(N2CCC(C(=O)O)CC2)c2ccccc21 [Compound X, 1-(3-cyano-1-methyl-2-oxo-1,2-dihydroquinolin-4-yl)piperidine-4-carboxylic acid] | > 200 | – | – | –
Cn1c(=O)c(C#N)c(N2CCC(C(=O)Nc3ccn[nH]3)CC2)c2ccccc21 [Compound XV] | ≤ 10 | – | – | –
Cn1c(=O)c(C#N)c(N2CC(NC(=O)c3cccs3)C2)c2ccccc21 [Compound XXI, N-[1-(3-cyano-1-methyl-2-oxo-1,2-dihydroquinolin-4-yl)azetidin-3-yl]thiophene-2-carboxamide] | 10 to 100 | ≤ 10 | 10 to 50 | 10 to 50
Cn1c(=O)c(C#N)c(NC2CN(S(C)(=O)=O)C2)c2ccccc21 [Compound XXVI, 1-methyl-4-(1-(methylsulfonyl)azetidin-3-ylamino)-2-oxo-1,2-dihydroquinoline-3-carbonitrile] | 10 to 100 | – | – | –
Cn1c(=O)c(C#N)c(N2CCC(C(=O)NCCO)CC2)c2ccccc21 [XIII] | > 200 | – | – | –
CN(C)C(=O)C1CCN(c2c(C#N)c(=O)n(C)c3ccccc23)CC1 [XII] | > 200 | – | – | –
Cn1c(=O)c(C#N)c(NC2CN(C(=O)c3cccs3)C2)c2ccccc21 [XXIV, 1-methyl-2-oxo-4-(1-(thiophene-2-carbonyl)azetidin-3-ylamino)-1,2-dihydroquinoline-3-carbonitrile] | ≤ 10 | 50 to 70 | 10 to 50 | > 70
N#Cc1c(NC2CCN(C(=O)c3cccs3)CC2)c2ccccc2n(Cc2ccc(F)cc2)c1=O [XXXIII] | ≤ 10 | 50 to 70 | – | –
N#Cc1c(NC2CN(S(=O)(=O)c3cccs3)C2)c2ccccc2n(Cc2ccc(F)cc2)c1=O [XXXIV, 1-(4-fluorobenzyl)-2-oxo-4-(1-(thiophen-2-ylsulfonyl)azetidin-3-ylamino)-1,2-dihydroquinoline-3-carbonitrile] | > 200 | – | – | –
N#Cc1c(N2CC(C(=O)c3cccs3)C2)c2ccccc2n(Cc2ccc(F)cc2)c1=O [XXXVIII] | 100 to 200 | – | – | –
N#Cc1c(NC2CN(C(=O)c3cncnc3)C2)c2ccccc2n(Cc2ccc(F)cc2)c1=O [XXXVII] | 10 to 100 | – | – | –

The next lines start with results.

IC50 (Native human MIF) [µM] | Structure (SMILES) | inhibition at 25 µM (LPS-stimulated PBMCs) [%] | inhibition at 25 µM (rhMIF-stimulated PBMCs [1]) [%] | inhibition at 25 µM (rhMIF-stimulated PBMCs [2]) [%]
> 200 | Cn1c(=O)c(C#N)c(N2CCC(C(=O)NCc3ccncc3)CC2)c2ccccc21 [Compound XI, 1-(3-cyano-1-methyl-2-oxo-1,2-dihydroquinolin-4-yl)N-(pyridin-4-ylmethyl)piperidine-4-carboxamide] | – | – | –
≤ 10 | Cn1c(=O)c(C#N)c(N2CC(C(=O)NCc3ccncc3)C2)c2ccccc21 [Compound XIX, 1-(3-cyano-1-methyl-2-oxo-1,2-dihydroquinolin-4-yl)-N-(pyridin-4-ylmethyl)azetidine-3-carboxamide] | – | – | –
100 to 200 | N#Cc1c(N2CCC(C(=O)c3cccs3)CC2)c2ccccc2n(Cc2ccc(F)cc2)c1=O [Compound XXVIII, 1-(4-fluorobenzyl)-2-oxo-4-[4-(thiophen-2-ylcarbonyl)piperidin-1-yl]-1,2-dihydroquinoline-3-carbonitrile] | 10 to 50 | – | –
> 200 | Cn1c(=O)c(C#N)c(NC2CCN(S(C)(=O)=O)CC2)c2ccccc21 [Compound XXV] | – | – | –
≤ 10 | Cn1c(=O)c(C#N)c(N2CCC(C(=O)Nc3nccs3)CC2)c2ccccc21 [XIV] | – | – | –
≤ 10 | Cn1c(=O)c(C#N)c(NC2CCN(C(=O)c3cccs3)CC2)c2ccccc21 [XVII-1, 1-methyl-2-oxo-4-{[1-(thiophen-2-ylcarbonyl)piperidin-4-yl]amino}-1,2-dihydroquinoline-3-carbonitrile] | 50 to 70 | – | –
≤ 10 | N#Cc1c(NC2CN(C(=O)c3cccs3)C2)c2ccccc2n(Cc2ccc(F)cc2)c1=O [XXXVI] | – | – | > 70
≤ 10 | N#Cc1c(NC2CN(C(=O)c3ccncc3)C2)c2ccccc2n(Cc2ccc(F)cc2)c1=O [XXXV] | – | – | 10 to 50
